Experimental data as given in the NIST ThermoML archive (doi:10.1016/j.jct.2019.02.011).

Test: xn = mol fraction of the nth substance listed
Settings: 288.15 K, Liquid, Vibrating tube method

COC(=O)OC [dimethyl carbonate] + CCCO
mass density [kg/m3]
Settings | 100 kPa | 5000 kPa | 10000 kPa | 15000 kPa | 20000 kPa | 25000 kPa
x1 = 0.0273 | 815.28 | 819.04 | 822.48 | 825.78 | 829.15 | 832.17
x1 = 0.0506 | 821.93 | 825.69 | 829.18 | 832.53 | 835.9 | 838.98
x1 = 0.0755 | 829.07 | 832.88 | 836.37 | 839.78 | 843.2 | 846.28
x1 = 0.1007 | 836.26 | 840.08 | 843.62 | 847.03 | 850.45 | 853.58
x1 = 0.1495 | 850.12 | 853.99 | 857.54 | 861.01 | 864.47 | 867.61
x1 = 0.2003 | 864.44 | 868.36 | 871.96 | 875.5 | 879 | 882.15
x1 = 0.2529 | 879.11 | 883.04 | 886.7 | 890.29 | 893.84 | 897.05
x1 = 0.2993 | 891.99 | 895.97 | 899.68 | 903.29 | 906.83 | 910.1
x1 = 0.3497 | 905.81 | 909.85 | 913.56 | 917.23 | 920.81 | 924.09
x1 = 0.401 | 919.74 | 923.79 | 927.61 | 931.33 | 934.96 | 938.25
x1 = 0.4509 | 933.25 | 937.3 | 941.17 | 944.96 | 948.59 | 951.93
x1 = 0.5002 | 946.47 | 950.58 | 954.46 | 958.3 | 961.98 | 965.33
x1 = 0.5498 | 959.76 | 963.88 | 967.81 | 971.66 | 975.38 | 978.79
x1 = 0.5996 | 973.01 | 977.19 | 981.12 | 984.99 | 988.75 | 992.17
x1 = 0.6499 | 986.28 | 990.51 | 994.5 | 998.42 | 1002.18 | 1005.66
x1 = 0.7006 | 999.56 | 1003.79 | 1007.79 | 1011.77 | 1015.53 | –
x1 = 0.7471 | 1011.61 | 1015.85 | 1019.9 | 1023.94 | 1027.7 | –
x1 = 0.7989 | 1025.02 | 1029.31 | 1033.41 | 1037.52 | 1041.32 | –
x1 = 0.8491 | 1038.04 | 1042.34 | 1046.44 | 1050.56 | 1054.41 | –
x1 = 0.8993 | 1051.07 | 1055.38 | 1059.54 | 1063.72 | 1067.56 | –
x1 = 0.9249 | 1057.64 | 1061.95 | 1066.12 | 1070.3 | 1074.14 | –
x1 = 0.9489 | 1063.77 | 1068.08 | 1072.25 | 1076.44 | 1080.27 | –
x1 = 0.9743 | 1070.25 | 1074.61 | 1078.78 | 1082.98 | 1086.81 | –
x1 = 1 | 1076.83 | 1081.15 | 1085.32 | 1089.52 | 1093.35 | –
